Marks after values point to notes of the source that are not given here. Each block holds one compound with its values, some of them ahead of it.
Experiments:
[1] = system: N0STZ rats; assay: Antidiabetic activity in N0STZ rats (glycaemia after oral treatment); assay type: in vivo, rat; conditions: for percentage change in the glycaemia relative to D0, D4 (20 mg) / percentage change in the glycaemia relative to D0, D4 (200 mg): four days of treatment; for percentage change in the glycaemia relative to D0, D1 (20 mg) / percentage change in the glycaemia relative to D0, D1 (200 mg): one day of treatment
Procedure: Study of the Antidiabetic Activity in N0STZ Rats
The antidiabetic activity of the compounds of the formulae (I) and (II) orally was determined on an experimental model of non-insulin-dependent diabetes, induced in rats with steptozotocin.
The model of non-insulin-dependent diabetes is obtained in the rats by means of a neonatal injection (on the day of birth) of steptozotocin.
The diabetic rats used are eight weeks old. The animals are housed, from the day of birth to the day of the experiment, in an animal house at a regulated temperature of 21 to 22° C. and subjected to a fixed cycle of light (from 7 a.m. to 7 p.m.) and darkness (from 7 p.m. to 7 a.m.). Their food consisted of a maintenance diet, and water and food were given “ad libitum”, with the exception of fasting two hours before the tests, during which period the food is removed (post-absorptive state).
The rats are treated orally for one (D1) or four (D4) days with the test product. Two hours after the final administration of the product and 30 minutes after anaesthetising the animals with pentobarbital sodium (Nembutal®), a 300 μL blood sample is taken from the end of the tail.
The results presented below are expressed as a percentage change in the glycaemia on D1 and D4 (number of days of treatment) relative to D0 (before the treatment).

[2] = system: perfused isolated pancreases from N0 STZ diabetic rats; assay: Secretion of insulin and glucagon in perfused isolated pancreases from N0 STZ diabetic rats; assay type: cell-based; conditions: perfused diabetic rat pancreas; absence of glucose, then 16.5 mM glucose; glucose-dependent
Excerpt: The results are expressed as the mean ±SEM (standard error of mean) of several experiments. The statistical test used is the Scheffé test.

[3] = system: hepatocytes; assay: Hepatic glucose production in vitro in isolated hepatocytes (Table IV); assay type: cell-based, Wistar rats; conditions: for inhibition of hepatic glucose production in vitro (in words): isolated rat hepatocytes
Procedure: The following two methods were used:
(§1) 1) The hepatocytes are cultured for 16 to 18 hours in DMEM medium in the presence of AMP cyclase/dexamethasone at respective concentrations of 5×10^−5 M and 5×10^−7 M, with preincubation of the products at the test doses. After washing in pH 7.4 PBS buffer, the cells are incubated for three hours at 37° C. in a Krebs/AMPc/DEX buffer at the abovementioned concentrations. 0.1 μM insulin is used as reference substance. Two identical experiments are performed (Table III-1).
(§2) After washing in pH 7.4 PBS buffer, the cells are incubated for two hours at 37° C. in a Krebs buffer free of glucose and of insulin, containing lactate/pyruvate (10/1 mM) in the presence or absence of the test compounds. 10 μM MICA (5-methoxyindole-2-carboxylic acid) is used as reference substance. Two identical experiments are performed (Table III-2).
The protein assay is performed on the rest of the incubation medium via the Lowry method (BIO-RAD Dc protein assay, BIO-RAD 5000116).
(§3) The results are expressed as nmoles of glucose produced per […] of proteins. The statistical test used is the t test.

[4] = system: primary hepatocytes; assay: Hepatic glucose production stimulated by AMPc/DEX in primary hepatocytes (Table III-1); assay type: cell-based, Wistar rats
Procedure: (§4) The hepatocytes are isolated from the liver of Wistar rats fasted for 24 hours, according to the method described in Methods Cell Biol., 13 (1975), 29-83.
as §1
(§5) Quantification of the glucose is performed via a calorimetric method using glucose oxidase (IL test™ Glucose, Monarch 181633-80). The protein assay is performed on the rest of the incubation medium via the Lowry method (BIO-RAD Dc protein assay, BIO-RAD 5000116).
as §3

[5] = system: primary hepatocytes; assay: Hepatic glucose production, basal Lact/Pyr 2 hours, in primary hepatocytes (Table III-2); assay type: cell-based, Wistar rats
Procedure: as §4
2) The hepatocytes are cultured for 16 to 18 hours in RPMI 1640 medium free of glucose but supplemented with 1% glutamine, 100 U/mL penicillin, […] streptomycin and 7×10^−5 M hydrocortisone hemisuccinate.
as §2, §5, §3

[6] = molecular target: T1, kynurenine 3-hydroxylase (Rattus norvegicus, UniProt O88867); assay: Inhibitory activity on kynurenine 3-hydroxylase in rat liver homogenate; assay type: biochemical; conditions: mean of two experiments, read-out: IC50, kynurenine 3-hydroxylase inhibition
T1 construct: from tissue; host or cells: rat liver homogenate (12000 rpm pellet, resuspended)
T1 sequence (O88867 whole entry): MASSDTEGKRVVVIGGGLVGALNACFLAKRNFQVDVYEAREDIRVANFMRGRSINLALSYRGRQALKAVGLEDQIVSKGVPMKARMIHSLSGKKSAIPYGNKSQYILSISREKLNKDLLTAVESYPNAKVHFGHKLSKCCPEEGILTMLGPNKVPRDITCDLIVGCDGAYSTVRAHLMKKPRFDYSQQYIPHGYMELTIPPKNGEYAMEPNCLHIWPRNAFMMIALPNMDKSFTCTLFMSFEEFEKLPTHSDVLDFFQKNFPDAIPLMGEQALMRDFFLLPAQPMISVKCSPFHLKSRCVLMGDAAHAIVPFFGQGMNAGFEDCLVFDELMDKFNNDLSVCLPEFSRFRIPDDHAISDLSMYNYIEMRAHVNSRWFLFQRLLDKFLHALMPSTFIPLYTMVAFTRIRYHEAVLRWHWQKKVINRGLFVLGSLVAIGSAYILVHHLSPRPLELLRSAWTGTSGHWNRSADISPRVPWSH
Procedure: Study of the Inhibitory Activity on Kynurenine 3-Hydroxylase in Rat Liver
Rat livers are homogenised (1:8 weight/volume) in a buffer solution comprising: 0.25 M sucrose; 50 mM pH 7.4 Tris; 1 mM EDTA; and 1 mM DTT.
The homogenates are centrifuged for 10 minutes at 12000 rpm. The pellets are resuspended in the buffer solution described above (1:2 weight/volume).
The kynurenine 3-hydroxylase inhibition is determined by incubating 10 μL of the homogenate with NADPH (2 mM), kynurenine (100 μM) and various concentrations of the test compounds in a final volume of 100 μL at 37° C. for 5 minutes.
The compounds are tested at concentrations of between 1 μM and 300 μM. 3,4-Dimethoxy-N-[4-(3-nitrophenyl)thiazol-2-yl]benzenesulfonamide is a compound from the company Hoffmann-LaRoche (Basle, see J. Med. Chem., 40 (1997), 4738). 30H-Kynurenine was tested according to the protocol described by Carpendo et al. (Neuroscience, 61 (1994), 237-244).
Each of the experiments is repeated once and the IC50 values (in μmol/L) are calculated and given in the form of a mean of these two experiments.
Results concerning representative examples of family Ih are given in Table II below, in which is indicated the measurement of the percentage of remaining kynurenine 3-hydroxylase activity relative to the control (100%).

[7] = Rattus norvegicus, Hepatocyte, 1 μM
[8] = Rattus norvegicus, Hepatocyte, 10 μM
[9] = Rattus norvegicus, Hepatocyte, 100 μM

melting point: 151 to 153 °C
Structure (SMILES): Cc1ccc(SC(CC(=O)c2ccc(Cl)cc2)C(=O)O)cc1 (centres unmarked) [Ih-28, 2-(4′-methylphenylthio)-4-(4′-chlorophenyl)-4-oxobutanoic acid]

melting point: 137 to 140 °C
Structure (SMILES): COc1ccc(SC(CC(=O)c2ccc(OC)cc2)C(=O)O)cc1 (centres unmarked) [Ih-21, 2-(4′-methoxyphenylthio)-4-(4′-methoxyphenyl)-4-oxobutanoic acid]

melting point: 140 to 141 °C
Structure (SMILES): O=C(CC(Sc1ccc(F)cc1)C(=O)O)c1ccc(Cl)cc1 (centres unmarked) [Ih-26, 2-(4′-fluorophenylthio)-4-(4′-chlorophenyl)-4-oxobutanoic acid]

melting point: 137 to 141 °C
Structure (SMILES): COc1ccc(C(=O)CC(Sc2ccc(C)cc2)C(=O)O)cc1 (centres unmarked) [Ih-20, 2-(4′-methylphenylthio)-4-(4′-methoxyphenyl)-4-oxobutanoic acid]

melting point: 108 to 110 °C
Structure (SMILES): COc1ccc(C(=O)CC(Sc2ccc(F)cc2)C(=O)O)cc1 (centres unmarked) [Ih-18, 2-(4′-fluorophenylthio)-4-(4′-methoxyphenyl)-4-oxobutanoic acid]

melting point: 117 to 119 °C
Structure (SMILES): COc1ccc(SC(CC(=O)c2ccc(Cl)cc2)C(=O)O)cc1 (centres unmarked) [Ih-29, 2-(4′-methoxyphenylthio)-4-(4′-chlorophenyl)-4-oxobutanoic acid]

melting point: 120 to 121 °C
Structure (SMILES): COc1ccc(C(=O)CC(Sc2ccc(Cl)cc2)C(=O)O)cc1 (centres unmarked) [Ih-19, 2-(4′-chlorophenylthio)-4-(4′-methoxyphenyl)-4-oxobutanoic acid]

melting point: 121 to 125 °C
Structure (SMILES): COc1ccc(C(=O)CC(Sc2ccccc2)C(=O)O)cc1 (centres unmarked) [Ih-17, 2-phenylthio-4-(4′-methoxyphenyl)-4-oxobutanoic acid]

More lines, now with the values behind:

Structure (SMILES): O=C(CC(Sc1ccc(F)cc1)C(=O)O)c1ccccc1 (centres unmarked) [Ih-3, 2-(4′-fluorophenylthio)-4-phenyl-4-oxobutanoic acid]
percentage change in the glycaemia relative to D0, D4 (20 mg) [1]: −19%
percentage change in the glycaemia relative to D0, D4 (200 mg) [1]: −12%
percentage change in the glycaemia relative to D0, D1 (20 mg) [1]: −3%
percentage change in the glycaemia relative to D0, D1 (200 mg) [1]: 7%

Structure (SMILES): O=C(O)c1cc(=O)c2ccccc2[nH]1 [Kynurenic acid]
glucagon secretion (in words) [2]: stimulates
insulin secretion (in words) [2]: stimulates the secretion of insulin

Structure (SMILES): Nc1ccccc1C(=O)CC(N)C(=O)O (centres unmarked) [Kynurenine]
inhibition at 1 µM [3, 7]: 2%
inhibition at 10 µM [3, 8]: 4%
inhibition at 100 µM [3, 9]: 25%
inhibition at 1000 µM ([3]; Rattus norvegicus, Hepatocyte, 1000 μM): 78%
inhibition of hepatic glucose production in vitro (in words) [3]: powerful inhibitors of hepatic glucose production in vitro
glucagon secretion (in words) [2]: stimulated
insulin secretion (in words) [2]: stimulated

Structure (SMILES): Cc1ccc(SC(CC(=O)c2ccccc2)C(=O)O)cc1 (centres unmarked) [Ih-5, 2-(4′-methylphenylthio)-4-phenyl-4-oxobutanoic acid]
melting point: 132 to 134 °C

Structure (SMILES): COc1ccc2[nH]c(C(=O)O)cc2c1 [MICA, 5-methoxyindole-2-carboxylic acid]
inhibition at 10 µM [3, 8]: 67%

Structure (SMILES): N[C@@H](Cc1c[nH]c2ccccc12)C(=O)O [Tryptophan]
inhibition at 10 µM [3, 8]: 12%
inhibition at 100 µM [3, 9]: 81%
inhibition of hepatic glucose production in vitro (in words) [3]: powerful inhibitors of hepatic glucose production in vitro
glucagon secretion (in words) [2]: stimulates glucagon secretion in a glucose-dependent manner
insulin secretion (in words) [2]: stimulates insulin secretion in a glucose-dependent manner

Structure (SMILES): O=C(C[C@@H](Cc1ccccc1)C(=O)O)c1ccc(Cl)c(Cl)c1 (racemic) [Compound j, (R,S)-2-benzyl-4-(3′,4′-dichlorophenyl)-4-oxobutanoic acid]
inhibition of hepatic glucose production ([3]; 1 μM): 30** %
inhibition of hepatic glucose production ([3]; 10 μM): 51** %
inhibition of hepatic glucose production ([3]; 100 μM): 65** %
inhibition of hepatic glucose production in vitro (in words) [3]: powerful inhibitors of hepatic glucose production in vitro

Structure (SMILES): COc1ccc(C(=O)CC(SCc2ccccc2)C(=O)O)cc1 (centres unmarked) [Ih-24, 2-benzylthio-4-(4′-methoxyphenyl)-4-oxobutanoic acid]
melting point: 105 to 109 °C

Structure (SMILES): O=C(CC(Sc1ccc(Cl)cc1)C(=O)O)c1ccccc1 (centres unmarked) [Ih-4, 2-(4′-chlorophenylthio)-4-phenyl-4-oxobutanoic acid]
melting point: 140 to 142 °C

Structure (SMILES): O=C(CC(SC1CCCCC1)C(=O)O)c1ccccc1 (centres unmarked) [Ih-7, 2-cyclohexylthio-4-phenyl-4-oxobutanoic acid]
melting point: 117 °C

Structure (SMILES): O=C(CC(SCc1ccccc1)C(=O)O)c1ccccc1 (centres unmarked) [Ih-8, 2-benzylthio-4-phenyl-4-oxobutanoic acid]
melting point: 143 to 146 °C

Structure (SMILES): O=C(CC(Sc1ccc2ccccc2c1)C(=O)O)c1ccccc1 (centres unmarked) [Ih-1, 2-(2′-naphthylthio)-4-phenyl-4-oxobutanoic acid]
percentage change in the glycaemia relative to D0, D4 (20 mg) [1]: −12%
percentage change in the glycaemia relative to D0, D4 (200 mg) [1]: −21%
percentage change in the glycaemia relative to D0, D1 (20 mg) [1]: 7%
percentage change in the glycaemia relative to D0, D1 (200 mg) [1]: 10%
HGP % of control ([4]; 1 μM): 103 % of control
HGP % of control ([4]; 10 μM): 83 % of control
HGP % of control ([4]; 100 μM): 15 % of control
HGP % of control ([5]; 1 μM): 110 % of control
HGP % of control ([5]; 10 μM): 127 % of control
HGP % of control ([5]; 100 μM): 75 % of control
inhibition of hepatic glucose production in vitro (in words) [3]: powerful inhibitors of hepatic glucose production in vitro

Structure (SMILES): COc1ccc(SC(CC(=O)c2ccccc2)C(=O)O)cc1 (centres unmarked) [Ih-6, 2-(4′-methoxyphenylthio)-4-phenyl-4-oxobutanoic acid]
melting point: 116 to 118 °C

Structure (SMILES): O=C(C[C@@H](Cc1ccccc1)C(=O)O)c1ccc(F)cc1 [Compound i, (R)-2-benzyl-4-(4-fluorophenyl)-4-oxobutanoic acid]
IC50 [6]: 1000 ± 200 nM
inhibition at 1 µM [3, 7]: 13%
inhibition at 10 µM [3, 8]: 28%
inhibition at 100 µM [3, 9]: 62%
inhibition of hepatic glucose production in vitro (in words) [3]: powerful inhibitors of hepatic glucose production in vitro
glucagon secretion (in words) [2]: stimulation
insulin secretion (in words) [2]: stimulation

Structure (SMILES): COc1ccc(C(=O)CC(SC2CCCCC2)C(=O)O)cc1 (centres unmarked) [Ih-23, 2-cyclohexylthio-4-(4′-methoxyphenyl)-4-oxobutanoic acid]
melting point: 120 to 122 °C

Structure (SMILES): O=C(CC(Sc1ccccc1)C(=O)O)c1ccccc1 (centres unmarked) [Ih-2, 2-phenylthio-4-phenyl-4-oxobutanoic acid]
melting point: 132 to 135 °C

Structure (SMILES): O=C(CC(Sc1ccccc1)C(=O)O)c1ccc(Cl)cc1 (centres unmarked) [Ih-25, 2-phenylthio-4-(4′-chlorophenyl)-4-oxobutanoic acid]
melting point: 166 to 169 °C

Structure (SMILES): O=C(CC(C(=O)O)c1ccc(Cl)cc1)c1ccc(Cl)cc1 (centres unmarked) [Ih-27, 2-(4′-chlorophenyl)-4-(4′-chlorophenyl)-4-oxobutanoic acid]
melting point: 154 to 156 °C

Source: patent publication US20060052456A1, “Kynurenine 3-hydroxylase inhibitors for the treatment of diabetes by increasing the number of islets of langerhans cells” (MERCK PATENT GMBH, priority 2003, published 2006)
